Data taken from ChEMBL document CHEMBL3885861, “Open TG-GATES”.

Organism: Rattus norvegicus
Experiment: Open TG-GATES - Regimen: Daily Repeat
Type: toxicity, organism-based, Sprague-Dawley
Parameters: regimen Daily Repeat, gender Male, age 6 weeks
Details: in vivo, po, 0 mg/kg, route gavage, dose level Control; for APTT / Bas / Eos / Fbg / Hb / Ht / Lym / MCH / MCHC / MCV / Mono / Neu / PT / Plat / RBC / Ret / WBC: tissue Blood; for KIDNEY_L / KIDNEY_R / KIDNEY_TOTAL: tissue Kidney; for LIVER: tissue Liver; for A/G / ALP / ALT / AST / BUN / CRE / Ca / Cl / DBIL / GLC / IP / K / LDH / Na / PL / RALB / TBIL / TC / TG / TP / gamma-GTP: tissue Plasma

SMILES: CN(C)CCN(Cc1cccs1)c1ccccn1
- TERMINAL_BW (72 h, time 3 day): 217.2 g
- APTT (72 h, time 3 day): 22.4 s
- Bas (72 h, time 3 day): 0%
- Eos (72 h, time 3 day): 0.6%
- Fbg (72 h, time 3 day): 290.8 mg/dL
- Hb (72 h, time 3 day): 12.9 g/dL
- Ht (72 h, time 3 day): 38.8%
- Lym (72 h, time 3 day): 80.4%
- MCH (72 h, time 3 day): 21.3 pg
- MCHC (72 h, time 3 day): 33.4%
- MCV (72 h, time 3 day): 63.8 fL
- Mono (72 h, time 3 day): 1.8%
- Neu (72 h, time 3 day): 16.4%
- PT (72 h, time 3 day): 15.9 s
- Plat (72 h, time 3 day): 125.8 x10_4/uL
- RBC (72 h, time 3 day): 609 x10_4/ul
- Ret (72 h, time 3 day): 6.8%
- WBC (72 h, time 3 day): 107.9 x10_2/uL
- KIDNEY_L (72 h, time 3 day): 1 g
- KIDNEY_R (72 h, time 3 day): 1 g
- KIDNEY_TOTAL (72 h, time 3 day): 2 g
- LIVER (72 h, time 3 day): 10.2 g
- A/G (72 h, time 3 day): 1.2
- ALP (72 h, time 3 day): 1533 IU/L
- ALT (72 h, time 3 day): 39.2 IU/L
- AST (72 h, time 3 day): 68 IU/L
- BUN (72 h, time 3 day): 16.8 mg/dL
- CRE (72 h, time 3 day): 0.2 mg/dL
- Ca (72 h, time 3 day): 10.9 mg/dL
- Cl (72 h, time 3 day): 106.4 meq/L
- DBIL (72 h, time 3 day): 0.002 mg/dL
- GLC (72 h, time 3 day): 187.2 mg/dL
- IP (72 h, time 3 day): 7.1 mg/dL
- K (72 h, time 3 day): 4.4 meq/L
- LDH (72 h, time 3 day): 210.8 IU/L
- Na (72 h, time 3 day): 142.6 meq/L
- PL (72 h, time 3 day): 140.6 mg/dL
- RALB (72 h, time 3 day): 3 g/dL
- TBIL (72 h, time 3 day): 0.012 mg/dL
- TC (72 h, time 3 day): 75.4 mg/dL
- TG (72 h, time 3 day): 86.8 mg/dL
- TP (72 h, time 3 day): 5.6 g/dL
- gamma-GTP (72 h, time 3 day): 1 IU/L
- TERMINAL_BW ([…], time 7 day): 246.2 g
- TERMINAL_BW ([…], time 14 day): 277 g
- TERMINAL_BW ([…], time 28 day): 347.3 g
- APTT ([…], time 7 day): 21.1 s
- Bas ([…], time 7 day): 0%
- Eos ([…], time 7 day): 0.6%
- Fbg ([…], time 7 day): 320.8 mg/dL
- Hb ([…], time 7 day): 13.4 g/dL
- Ht ([…], time 7 day): 39.8%
- Lym ([…], time 7 day): 80.2%
- MCH ([…], time 7 day): 20.8 pg
- MCHC ([…], time 7 day): 33.6%
- MCV ([…], time 7 day): 61.8 fL
- Mono ([…], time 7 day): 2%
- Neu ([…], time 7 day): 16.4%
- PT ([…], time 7 day): 17 s
- Plat ([…], time 7 day): 131 x10_4/uL
- RBC ([…], time 7 day): 644.2 x10_4/ul
- Ret ([…], time 7 day): 5.8%
- WBC ([…], time 7 day): 122.7 x10_2/uL
- APTT ([…], time 14 day): 21.6 s
- Bas ([…], time 14 day): 0%
- Eos ([…], time 14 day): 1%
- Fbg ([…], time 14 day): 303.8 mg/dL
- Hb ([…], time 14 day): 14 g/dL
- Ht ([…], time 14 day): 40.9%
- Lym ([…], time 14 day): 81.8%
- MCH ([…], time 14 day): 20.3 pg
- MCHC ([…], time 14 day): 34.2%
- MCV ([…], time 14 day): 59.4 fL
- Mono ([…], time 14 day): 2%
- Neu ([…], time 14 day): 14.4%
- PT ([…], time 14 day): 16.7 s
- Plat ([…], time 14 day): 112.6 x10_4/uL
- RBC ([…], time 14 day): 689.8 x10_4/ul
- Ret ([…], time 14 day): 4.2%
- WBC ([…], time 14 day): 133.3 x10_2/uL
- APTT ([…], time 28 day): 23.4 s
- Bas ([…], time 28 day): 0%
- Eos ([…], time 28 day): 1%
- Fbg ([…], time 28 day): 288.2 mg/dL
- Hb ([…], time 28 day): 14.7 g/dL
- Ht ([…], time 28 day): 42.7%
- Lym ([…], time 28 day): 79%
- MCH ([…], time 28 day): 19.5 pg
- MCHC ([…], time 28 day): 34.3%
- MCV ([…], time 28 day): 56.9 fL
- Mono ([…], time 28 day): 1.6%
- Neu ([…], time 28 day): 17.4%
- PT ([…], time 28 day): 16.1 s
- Plat ([…], time 28 day): 97.6 x10_4/uL
- RBC ([…], time 28 day): 751.4 x10_4/ul
- Ret ([…], time 28 day): 2.9%
- WBC ([…], time 28 day): 92 x10_2/uL
- KIDNEY_L ([…], time 7 day): 1 g
- KIDNEY_R ([…], time 7 day): 1 g
- KIDNEY_TOTAL ([…], time 7 day): 2.1 g
- KIDNEY_L ([…], time 14 day): 1.1 g
- KIDNEY_R ([…], time 14 day): 1.1 g
- KIDNEY_TOTAL ([…], time 14 day): 2.3 g
- KIDNEY_L ([…], time 28 day): 1.3 g
- KIDNEY_R ([…], time 28 day): 1.3 g
- KIDNEY_TOTAL ([…], time 28 day): 2.5 g
- LIVER ([…], time 7 day): 10.9 g
- LIVER ([…], time 14 day): 11.5 g
- LIVER ([…], time 28 day): 13.4 g
- A/G ([…], time 7 day): 1.2
- ALP ([…], time 7 day): 1666.2 IU/L
- ALT ([…], time 7 day): 40 IU/L
- AST ([…], time 7 day): 68 IU/L
- BUN ([…], time 7 day): 17.8 mg/dL
- CRE ([…], time 7 day): 0.2 mg/dL
- Ca ([…], time 7 day): 10.6 mg/dL
- Cl ([…], time 7 day): 107.4 meq/L
- DBIL ([…], time 7 day): 0 mg/dL
- GLC ([…], time 7 day): 182.4 mg/dL
- IP ([…], time 7 day): 7.3 mg/dL
- K ([…], time 7 day): 4.4 meq/L
- LDH ([…], time 7 day): 164.4 IU/L
- Na ([…], time 7 day): 144.4 meq/L
- PL ([…], time 7 day): 146.6 mg/dL
- RALB ([…], time 7 day): 3 g/dL
- TBIL ([…], time 7 day): 0.01 mg/dL
- TC ([…], time 7 day): 72.6 mg/dL
- TG ([…], time 7 day): 125.8 mg/dL
- TP ([…], time 7 day): 5.6 g/dL
- gamma-GTP ([…], time 7 day): 1.8 IU/L
- A/G ([…], time 14 day): 1.1
- ALP ([…], time 14 day): 1834 IU/L
- ALT ([…], time 14 day): 39.6 IU/L
- AST ([…], time 14 day): 68 IU/L
- BUN ([…], time 14 day): 19 mg/dL
- CRE ([…], time 14 day): 0.2 mg/dL
- Ca ([…], time 14 day): 10.1 mg/dL
- Cl ([…], time 14 day): 107.4 meq/L
- DBIL ([…], time 14 day): 0.002 mg/dL
- GLC ([…], time 14 day): 194.8 mg/dL
- IP ([…], time 14 day): 6.7 mg/dL
- K ([…], time 14 day): 4.1 meq/L
- LDH ([…], time 14 day): 160.2 IU/L
- Na ([…], time 14 day): 142.4 meq/L
- PL ([…], time 14 day): 138 mg/dL
- RALB ([…], time 14 day): 3 g/dL
- TBIL ([…], time 14 day): 0.008 mg/dL
- TC ([…], time 14 day): 63.8 mg/dL
- TG ([…], time 14 day): 128 mg/dL
- TP ([…], time 14 day): 5.5 g/dL
- gamma-GTP ([…], time 14 day): 1.2 IU/L
- A/G ([…], time 28 day): 1.2
- ALP ([…], time 28 day): 1175.4 IU/L
- ALT ([…], time 28 day): 42.6 IU/L
- AST ([…], time 28 day): 66.4 IU/L
- BUN ([…], time 28 day): 18.6 mg/dL
- CRE ([…], time 28 day): 0.2 mg/dL
- Ca ([…], time 28 day): 10.2 mg/dL
- Cl ([…], time 28 day): 107.8 meq/L
- DBIL ([…], time 28 day): 0.004 mg/dL
- GLC ([…], time 28 day): 183.6 mg/dL
- IP ([…], time 28 day): 6 mg/dL
- K ([…], time 28 day): 4.1 meq/L
- LDH ([…], time 28 day): 156 IU/L
- Na ([…], time 28 day): 143.2 meq/L
- PL ([…], time 28 day): 131.8 mg/dL
- RALB ([…], time 28 day): 3.1 g/dL
- TBIL ([…], time 28 day): 0.012 mg/dL
- TC ([…], time 28 day): 67 mg/dL
- TG ([…], time 28 day): 103 mg/dL
- TP ([…], time 28 day): 5.7 g/dL
- gamma-GTP ([…], time 28 day): 1.8 IU/L
